Results published in patent publication US9481676B2, “Azepino[4,5-B]indoles and methods of use” (Medivation Technologies, Inc., priority 2008, dated 2016).

Assays:
[1] = molecular target: T1, human recombinant histamine H2 receptor (Homo sapiens, UniProt P25021); test: Histamine H2 radioligand binding ([125I]Aminopotentidine); conditions: compound at 1 μM; read-out: Histamine Binding (1 μM) H2, percent inhibition of specific binding
T1 construct: expressed in transfected cells; host or cells: CHO-K1 cells
Summary of the method: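 Membranes from CHO-K1 cells expressing recombinant human H2 receptor, in 50 mM phosphate buffer pH 7.4, incubated with 0.1 nM [125I]aminopotentidine for 120 min at 25 °C; nonspecific binding defined with 3 μM tiotidine.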

[2] = molecular target: T2, human recombinant serotonin (5-Hydroxytryptamine) 5-HT2C receptor (Homo sapiens, UniProt P28335); test: Serotonin 5-HT2C radioligand binding ([3H]Mesulergine); conditions: compound at 1 μM; read-out: Serotonin (1 μM) 5-HT2C, percent inhibition of specific binding
T2 construct: expressed in transfected cells; host or cells: CHO-K1 cells
T2 sequence (P28335 33-458): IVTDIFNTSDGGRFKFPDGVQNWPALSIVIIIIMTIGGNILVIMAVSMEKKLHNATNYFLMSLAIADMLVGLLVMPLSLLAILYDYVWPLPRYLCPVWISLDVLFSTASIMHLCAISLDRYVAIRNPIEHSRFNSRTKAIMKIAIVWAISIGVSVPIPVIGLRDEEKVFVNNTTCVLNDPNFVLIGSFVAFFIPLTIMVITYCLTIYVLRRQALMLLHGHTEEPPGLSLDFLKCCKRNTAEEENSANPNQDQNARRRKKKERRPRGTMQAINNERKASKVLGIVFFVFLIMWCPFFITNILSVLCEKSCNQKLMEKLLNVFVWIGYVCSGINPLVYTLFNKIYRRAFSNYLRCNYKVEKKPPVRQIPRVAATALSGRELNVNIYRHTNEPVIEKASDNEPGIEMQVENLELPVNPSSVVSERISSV
Summary of the method: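 Membranes from CHO-K1 cells expressing human 5-HT2C, incubated with 1 nM [3H]mesulergine for 60 min at 25 °C in 50 mM Tris-HCl pH 7.4 with ascorbic acid and pargyline.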

[3] = molecular target: T3, human recombinant histamine H1 receptor (Homo sapiens, UniProt P35367); test: Histamine H1 radioligand binding ([3H]Pyrilamine); conditions: compound at 1 μM; read-out: Histamine Binding (1 μM) H1, percent inhibition of specific binding
T3 construct: expressed in transfected cells; host or cells: CHO cells
Summary of the method: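 Membranes from CHO cells expressing the receptor were incubated with compound and 1.2 nM [3H]pyrilamine for 180 min at 25 °C in 50 mM Tris-HCl pH 7.4 with MgCl2, NaCl and sucrose; 1 μM pyrilamine defined non-specific binding. Filter-bound radioactivity was counted.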

[4] = molecular target: T4, human recombinant dopamine D2L receptor (Homo sapiens, UniProt P14416); test: Dopamine D2L radioligand binding ([3H]Spiperone); conditions: compound at 1 μM; read-out: Dopamine (1 μM) D2L, percent inhibition of specific binding
T4 construct: expressed in transfected cells; host or cells: CHO cells
Summary of the method: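 Binding measured by filtration and counting, reported as % inhibition of specific [3H]spiperone binding (0.16 nM tracer; 10 μM haloperidol for nonspecific). Compounds tested at ≤1 μM in 1% DMSO for 120 min at 25° C against CHO-expressed human D2L in pH 7.4 Tris-HCl buffer.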

T3 sequence (P35367 whole entry): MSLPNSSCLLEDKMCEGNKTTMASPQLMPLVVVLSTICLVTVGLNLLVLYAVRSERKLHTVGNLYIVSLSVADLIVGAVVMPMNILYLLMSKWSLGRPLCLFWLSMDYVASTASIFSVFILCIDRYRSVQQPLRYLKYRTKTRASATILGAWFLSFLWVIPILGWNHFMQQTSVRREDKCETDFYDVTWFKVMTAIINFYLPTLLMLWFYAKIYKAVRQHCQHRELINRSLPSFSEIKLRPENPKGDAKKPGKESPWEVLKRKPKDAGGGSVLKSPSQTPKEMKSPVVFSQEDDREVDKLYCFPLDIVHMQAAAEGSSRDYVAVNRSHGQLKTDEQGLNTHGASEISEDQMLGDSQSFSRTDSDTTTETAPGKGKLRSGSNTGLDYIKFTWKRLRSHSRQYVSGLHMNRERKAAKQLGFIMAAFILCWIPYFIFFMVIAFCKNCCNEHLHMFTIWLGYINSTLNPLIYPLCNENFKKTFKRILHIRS
T4 sequence (P14416 whole entry): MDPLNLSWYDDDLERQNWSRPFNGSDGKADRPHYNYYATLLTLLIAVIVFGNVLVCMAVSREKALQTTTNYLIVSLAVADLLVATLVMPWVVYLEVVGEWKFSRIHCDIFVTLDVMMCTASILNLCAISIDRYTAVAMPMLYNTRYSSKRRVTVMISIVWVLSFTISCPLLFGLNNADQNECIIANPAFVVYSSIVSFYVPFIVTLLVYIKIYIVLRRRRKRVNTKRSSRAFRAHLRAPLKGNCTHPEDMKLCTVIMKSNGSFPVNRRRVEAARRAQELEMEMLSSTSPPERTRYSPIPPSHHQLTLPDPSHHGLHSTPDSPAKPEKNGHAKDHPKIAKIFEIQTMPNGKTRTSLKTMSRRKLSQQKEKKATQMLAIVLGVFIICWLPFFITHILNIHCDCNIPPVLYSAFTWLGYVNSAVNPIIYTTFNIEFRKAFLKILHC
T1 sequence (P25021 whole entry): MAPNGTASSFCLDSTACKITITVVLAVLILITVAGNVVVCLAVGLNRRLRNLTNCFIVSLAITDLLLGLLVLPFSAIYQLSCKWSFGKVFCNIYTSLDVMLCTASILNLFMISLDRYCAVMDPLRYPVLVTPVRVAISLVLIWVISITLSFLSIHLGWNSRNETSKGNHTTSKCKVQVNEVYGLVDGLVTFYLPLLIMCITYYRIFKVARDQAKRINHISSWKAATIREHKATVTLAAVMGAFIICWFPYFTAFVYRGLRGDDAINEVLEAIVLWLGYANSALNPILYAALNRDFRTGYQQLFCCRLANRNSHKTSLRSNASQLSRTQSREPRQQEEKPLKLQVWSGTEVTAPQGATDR

SMILES | inhibition at 1 µM [1] | inhibition at 1 µM [2] | inhibition at 1 µM [3] | inhibition at 1 µM [4]
COc1ccc(C(O)Cn2c3c(c4cc(C)ccc42)CCN(C)CC3)c(F)c1 (centres unmarked) [Compound No. 50, 1-(2-fluoro-4-methoxyphenyl)-2-(2,3,4,5-tetrahydro-3,9-dimethylazepino[4,5-b]indol-6(1H)-yl)ethanol] | 65% | 95% | 98% | 34%
CN1CCc2c(n(CC(O)c3ccc(F)cc3)c3ccc(Cl)cc23)CC1 (centres unmarked) [Compound No. 51, 2-(9-chloro-2,3,4,5-tetrahydro-3-methylazepino[4,5-b]indol-6(1H)-yl)-1-(4-fluorophenyl) ethanol] | 70% | 98% | 102% | 30%
Cc1ccc2c(c1)c1c(n2CC(O)c2ccc(F)cc2)CCN(C)CC1 (centres unmarked) [Compound No. 52, 1-(4-fluorophenyl)-2-(2,3,4,5-tetrahydro-3,9-dimethylazepino[4,5-b]indol-6(1H)-yl)ethanol] | 61% | 96% | 96% | 20%
CN1CCc2c(n(CC(=O)N3CCCC3)c3ccc(Cl)cc23)CC1 [Compound No. 53, 2-(9-chloro-2,3,4,5-tetrahydro-3-methylazepino[4,5-b]indol-6(1H)-yl)-1-(pyrrolidin-1-yl)ethanone] | 3% | 32% | 14% | 2%
Cc1ccc2c(c1)c1c(n2CC(=O)NC(C)C)CCN(C)CC1 [Compound No. 54, 2-(2,3,4,5-tetrahydro-3,9-dimethylazepino[4,5-b]indol-6(1H)-yl)-N-isopropylacetamide] | -3% | -2% | 18% | 6%
Cc1ccc2c(c1)c1c(n2CC(=O)OC2CCCC2)CCN(C)CC1 [Compound No. 55, Cyclopentyl-2-(2,3,4,5-tetrahydro-3,9-dimethylazepino[4,5-b]indol-6(1H)-yl)acetate] | -3% | 32% | 15% | 6%
CN1CCc2c(n(CCc3ccccc3)c3ccc(Cl)cc23)CC1 [Compound No. 56, 9-chloro-1,2,3,4,5,6-hexahydro-3-methyl-6-phenethylazepino[4,5-b]indole] | 74% | 95% | 105% | 62%
CN1CCc2c(n(CC(=O)N3CCCCC3)c3ccc(Cl)cc23)CC1 [Compound No. 57, 2-(9-chloro-2,3,4,5-tetrahydro-3-methylazepino[4,5-b]indol-6(1H)-yl)-1-(piperidin-1-yl)ethanone] | 1% | 65% | 8% | 10%
CN1CCc2c(n(CC(O)c3ccc(F)c(F)c3)c3ccc(Cl)cc23)CC1 (centres unmarked) [Compound No. 58, 2-(9-chloro-2,3,4,5-tetrahydro-3-methylazepino[4,5-b]indol-6(1H)-yl)-1-(3,4-difluorophenyl)ethanol] | 91% | 16% | 98% | 47%
Cc1ccc2c(c1)c1c(n2CC(O)c2ccc(F)cc2F)CCN(C)CC1 (centres unmarked) [Compound No. 59, 1-(2,4-difluorophenyl)-2-(2,3,4,5-tetrahydro-3,9-dimethylazepino[4,5-b]indol-6(1H)-yl)ethanol] | 37% | -3% | 60% | 20%
CN1CCc2c(n(CC(=O)N3CCOCC3)c3ccc(Cl)cc23)CC1 [Compound No. 60, 2-(9-chloro-2,3,4,5-tetrahydro-3-methylazepino[4,5-b]indol-6(1H)-yl)-1-morpholinoethanone] | 6% | -5% | 2% | -9%
CN1CCc2c(n(CCc3ccccc3F)c3ccc(Cl)cc23)CC1 [Compound No. 61, 6-(2-fluorophenethyl)-9-chloro-1,2,3,4,5,6-hexahydro-3-methylazepino[4,5-b]indole] | 89% | 89% | 97% | 1%
Cc1ccc2c(c1)c1c(n2CCc2ccccc2)CCN(C)CC1 [Compound No. 62, 1,2,3,4,5,6-hexahydro-3,9-dimethyl-6-phenethylazepino[4,5-b]indole] | 79% | 101% | 98% | 7%
Cc1ccc2c(c1)c1c(n2CCc2ccccc2F)CCN(C)CC1 [Compound No. 63, 6-(2-fluorophenethyl)-1,2,3,4,5,6-hexahydro-3,9-dimethylazepino[4,5-b]indole] | 83% | 5% | 99% | 61%
COc1ccc(C(O)Cn2c3c(c4cc(Cl)ccc42)CCN(C)CC3)cc1F (centres unmarked) [Compound No. 67, 2-(9-chloro-2,3,4,5-tetrahydro-3-methylazepino[4,5-b]indol-6(1H)-yl)-1-(3-fluoro-4-methoxyphenyl) ethanol] | 72% | 93% | 100% | 50%
COc1ccc(C(O)Cn2c3c(c4cc(C)ccc42)CCN(C)CC3)cc1F (centres unmarked) [Compound No. 68, 1-(3-fluoro-4-methoxyphenyl)-2-(2,3,4,5-tetrahydro-3,9-dimethylazepino[4,5-b]indol-6(1H)-yl)ethanol] | 69% | 95% | 102% | 40%
Cc1ccc2c(c1)c1c(n2CCc2ccccc2Cl)CCN(C)CC1 [Compound No. 69, 6-(2-chlorophenethyl)-1,2,3,4,5,6-hexahydro-3,9-dimethylazepino[4,5-b]indole] | -9% | -1% | 2% | -2%
CN1CCc2c(n(CC(=O)N3CCNCC3)c3ccc(Cl)cc23)CC1 [Compound No. 72, 2-(9-chloro-2,3,4,5-tetrahydro-3-methylazepino[4,5-b]indol-6(1H)-yl)-1-(piperazin-1-yl)ethanone] | 0% | 53% | -12% | -18%
CN1CCc2c(n(CC(=O)Nc3ccccc3)c3ccc(Cl)cc23)CC1 [Compound No. 73, 2-(9-chloro-2,3,4,5-tetrahydro-3-methylazepino[4,5-b]indol-6(1H)-yl)-N-phenylacetamide] | -5% | 11% | 18% | -14%
CN1CCc2c(n(CC(=O)N(C)C3CCCCC3)c3ccc(Cl)cc23)CC1 [Compound No. 74, 2-(9-chloro-2,3,4,5-tetrahydro-3-methylazepino[4,5-b]indol-6(1H)-yl)-N-cyclohexyl-N-methylacetamide] | 9% | 1% | 25% | -2%
CN1CCc2c(n(CC(=O)OCc3ccccc3)c3ccc(Cl)cc23)CC1 [Compound No. 75, Benzyl-2-(9-chloro-2,3,4,5-tetrahydro-3-methylazepino[4,5-b]indol-6(1H)-yl)acetate] | -4% | 13% | 20% | 2%
Cc1ccc2c(c1)c1c(n2/C=C/c2ccccc2)CCN(C)CC1 [Compound No. 229, (E)-3,9-dimethyl-6-styryl-1,2,3,4,5,6-hexahydroazepino[4,5-b]indole] | 94% | 98% | 100% | 68%
COc1ccc(/C=C/n2c3c(c4cc(C)ccc42)CCN(C)CC3)c(F)c1 [Compound No. 230, (E)-6-(2-fluoro-4-methoxystyryl)-3,9-dimethyl-1,2,3,4,5,6-hexahydroazepino[4,5-b]indole] | 89% | 96% | 95% | 48%
